Laboratory results from US20260022142A1, “MACROCYCLIC IMMUNOMODULATORS” (Bristol-Myers Squibb Company, priority 2022, published 2026).
Bridge positions count the residues as written; N and C are the ends. Square brackets hold non-standard residues; d marks the D form. Peptide text beside a SMILES is read from it. * marks the point of attachment. ξ: configuration not given here. Bip = N[C@@H](Cc1ccc(-c2ccccc2)cc1)C(=O)O; Cha = N[C@@H](CC1CCCCC1)C(=O)O; ξH = NC(Cc1c[nH]cn1)C(=O)O; dDab = NCC[C@@H](N)C(=O)O; Carboxymethyl = O=C(O)C*; Orn = NCCC[C@H](N)C(=O)O; dDap = NC[C@@H](N)C(=O)O; Aun = NCCCCCCCCCCC(=O)O; Dap = NC[C@H](N)C(=O)O; AEEA = NCCOCCOCC(=O)O; ξC = NC(CS)C(=O)O

Target: T1, PD-1/PD-L1 interaction (PE-labeled human PD-L1-Ig binding to Jurkat cell line over-expressing human PD-1) (Homo sapiens, UniProt Q15116)
T1 construct: expressed in transfected cells; host or cells: Jurkat
Experiment: Jurkat-PD-1 Cell Binding High-Content Screening Assay (CBA)
Format: cell-based
Conditions: Jurkat cell line over-expressing human PD-1; PE-labeled PD-L1-Ig 20 nM final; read-out: Jurkat hPD1-PDL1 IC50
Outline: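 Jurkat cells over-expressing human PD-1 (8×10^3 per well, DMEM/10% FCS) preincubated with compound 2 h at 37° C, then PE-labeled human PD-L1-Ig (20 nM final) added for 1 h. Cells fixed with paraformaldehyde, Hoechst-stained, and bound fluorescence quantified by high-content imaging.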

T1 sequence (Q15116 25-288): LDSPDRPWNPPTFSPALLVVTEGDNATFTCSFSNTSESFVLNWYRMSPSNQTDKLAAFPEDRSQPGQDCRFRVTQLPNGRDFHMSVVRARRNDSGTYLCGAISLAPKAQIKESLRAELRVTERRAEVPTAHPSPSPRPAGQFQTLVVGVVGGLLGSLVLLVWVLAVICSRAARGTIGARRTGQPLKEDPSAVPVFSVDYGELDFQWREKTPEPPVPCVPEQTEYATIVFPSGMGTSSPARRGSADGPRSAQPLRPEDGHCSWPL

Compound	IC50 [nM]
CC(C)C[C@H]1NC(=O)[C@H](CCCN)NC(=O)[C@H](C(C)C)NC(=O)[C@H](Cc2ccc(-c3ccccc3)cc2)NC(=O)[C@H](C(C)C)NC(=O)[C@H](Cc2c[nH]c3ccccc23)NC(=O)[C@H](CC(=O)O)NC(=O)[C@H](Cc2ccc(OCC(=O)O)cc2)NC(=O)[C@H](CN)NC(=O)CSC[C@@H](C(=O)N[C@H](Cc2cnc[nH]2)C(=O)NCCCCCCCCCCC(=O)O)NC(=O)[C@H]([C@@H](C)O)NC(=O)[C@H](C(C)C)NC(=O)[C@H](CC2CCCCC2)NC(=O)[C@H](Cc2cnc[nH]2)NC1=O [Compound 1124] ({CH2CO}-[Dap]Y(Carboxymethyl)DWV[Bip]V[Orn][dL]H[Cha]VTC[dH][Aun]-OH; thioether N-14)	38.2
CC(C)C[C@H]1NC(=O)[C@H](CCCN)NC(=O)[C@H](C(C)C)NC(=O)[C@H](Cc2ccc(-c3ccccc3)cc2)NC(=O)[C@H](C(C)C)NC(=O)[C@H](Cc2c[nH]c3ccccc23)NC(=O)[C@H](CC(=O)O)NC(=O)[C@H](Cc2ccc(OCC(=O)O)cc2)NC(=O)[C@H](CN)NC(=O)CSCC(C(=O)N[C@H](CC(N)=O)C(=O)NCCCCCCCCCCC(=O)O)NC(=O)[C@H]([C@@H](C)O)NC(=O)[C@H](C(C)C)NC(=O)[C@H](CC2CCCCC2)NC(=O)[C@H](Cc2cnc[nH]2)NC1=O (stereo partly drawn) [Compound 1125] ({CH2CO}-[Dap]Y(Carboxymethyl)DWV[Bip]V[Orn][dL]H[Cha]VT[ξC][dN][Aun]-OH; thioether N-14)	35.6
CC(C)C[C@H]1NC(=O)[C@H](CCCN)NC(=O)[C@H](C(C)C)NC(=O)[C@H](Cc2ccc(-c3ccccc3)cc2)NC(=O)[C@H](C(C)C)NC(=O)[C@H](Cc2c[nH]c3ccccc23)NC(=O)[C@H](CC(=O)O)NC(=O)[C@H](Cc2ccc(OCC(=O)O)cc2)NC(=O)[C@H](CN)NC(=O)CSCC(C(=O)N[C@@H](Cc2cnc[nH]2)C(=O)NCCCCCCCCCCC(=O)O)NC(=O)[C@H]([C@@H](C)O)NC(=O)[C@H](C(C)C)NC(=O)[C@H](CC2CCCCC2)NC(=O)[C@H](Cc2cnc[nH]2)NC1=O (stereo partly drawn) [Compound 1126] ({CH2CO}-[Dap]Y(Carboxymethyl)DWV[Bip]V[Orn][dL]H[Cha]VT[ξC]H[Aun]-OH; thioether N-14)	74
CC(C)C[C@H]1NC(=O)[C@H](CCCN)NC(=O)[C@H](C(C)C)NC(=O)[C@H](Cc2ccc(-c3ccccc3)cc2)NC(=O)[C@H](C(C)C)NC(=O)[C@H](Cc2c[nH]c3ccccc23)NC(=O)[C@H](CC(=O)O)NC(=O)[C@H](Cc2ccc(OCC(=O)O)cc2)NC(=O)[C@H](CN)NC(=O)CSC[C@@H](C(=O)NCCOCCOCC(=O)N[C@H](C)C(=O)NCCCCCCCCCCC(=O)O)NC(=O)[C@H]([C@@H](C)O)NC(=O)[C@H](C(C)C)NC(=O)[C@H](CC2CCCCC2)NC(=O)[C@H](Cc2cnc[nH]2)NC1=O [Compound 1127] ({CH2CO}-[Dap]Y(Carboxymethyl)DWV[Bip]V[Orn][dL]H[Cha]VTC[AEEA][dA][Aun]-OH; thioether N-14)	25.6
CC(C)C[C@H]1NC(=O)[C@H](CCCN)NC(=O)[C@H](C(C)C)NC(=O)[C@H](Cc2ccc(-c3ccccc3)cc2)NC(=O)[C@H](C(C)C)NC(=O)[C@H](Cc2c[nH]c3ccccc23)NC(=O)[C@H](CC(=O)O)NC(=O)[C@H](Cc2ccc(OCC(=O)O)cc2)NC(=O)[C@H](CN)NC(=O)CSC[C@@H](C(=O)NCCOCCOCC(=O)N[C@H](CN)C(=O)NCCCCCCCCCCC(=O)O)NC(=O)[C@H]([C@@H](C)O)NC(=O)[C@H](C(C)C)NC(=O)[C@H](CC2CCCCC2)NC(=O)[C@H](Cc2cnc[nH]2)NC1=O [Compound 1128] ({CH2CO}-[Dap]Y(Carboxymethyl)DWV[Bip]V[Orn][dL]H[Cha]VTC[AEEA][dDap][Aun]-OH; thioether N-14)	28.7
CC(C)C[C@H]1NC(=O)[C@H](CCCN)NC(=O)[C@H](C(C)C)NC(=O)[C@H](Cc2ccc(-c3ccccc3)cc2)NC(=O)[C@H](C(C)C)NC(=O)[C@H](Cc2c[nH]c3ccccc23)NC(=O)[C@H](CC(=O)O)NC(=O)[C@H](Cc2ccc(OCC(=O)O)cc2)NC(=O)[C@H](CN)NC(=O)CSC[C@@H](C(=O)NCCOCCOCC(=O)N[C@H](CCN)C(=O)NCCCCCCCCCCC(=O)O)NC(=O)[C@H]([C@@H](C)O)NC(=O)[C@H](C(C)C)NC(=O)[C@H](CC2CCCCC2)NC(=O)[C@H](Cc2cnc[nH]2)NC1=O [Compound 1129] ({CH2CO}-[Dap]Y(Carboxymethyl)DWV[Bip]V[Orn][dL]H[Cha]VTC[AEEA][dDab][Aun]-OH; thioether N-14)	37.4
CC(C)C[C@H]1NC(=O)[C@H](CCCN)NC(=O)[C@H](C(C)C)NC(=O)[C@H](Cc2ccc(-c3ccccc3)cc2)NC(=O)[C@H](C(C)C)NC(=O)[C@H](Cc2c[nH]c3ccccc23)NC(=O)[C@H](CC(=O)O)NC(=O)[C@H](Cc2ccc(OCC(=O)O)cc2)NC(=O)[C@H](CN)NC(=O)CSC[C@@H](C(=O)NCCOCCOCC(=O)N[C@H](CCCCN)C(=O)NCCCCCCCCCCC(=O)O)NC(=O)[C@H]([C@@H](C)O)NC(=O)[C@H](C(C)C)NC(=O)[C@H](CC2CCCCC2)NC(=O)[C@H](Cc2cnc[nH]2)NC1=O [Compound 1131] ({CH2CO}-[Dap]Y(Carboxymethyl)DWV[Bip]V[Orn][dL]H[Cha]VTC[AEEA][dK][Aun]-OH; thioether N-14)	14.3
CC(C)C[C@H]1NC(=O)[C@H](CCCN)NC(=O)[C@H](C(C)C)NC(=O)[C@H](Cc2ccc(-c3ccccc3)cc2)NC(=O)[C@H](C(C)C)NC(=O)[C@H](Cc2c[nH]c3ccccc23)NC(=O)[C@H](CC(=O)O)NC(=O)[C@H](Cc2ccc(OCC(=O)O)cc2)NC(=O)[C@H](CN)NC(=O)CSC[C@@H](C(=O)NCCOCCOCC(=O)N[C@H](CC(=O)O)C(=O)NCCCCCCCCCCC(=O)O)NC(=O)[C@H]([C@@H](C)O)NC(=O)[C@H](C(C)C)NC(=O)[C@H](CC2CCCCC2)NC(=O)[C@H](Cc2cnc[nH]2)NC1=O [Compound 1132] ({CH2CO}-[Dap]Y(Carboxymethyl)DWV[Bip]V[Orn][dL]H[Cha]VTC[AEEA][dD][Aun]-OH; thioether N-14)	35.9
CC(C)C[C@H]1NC(=O)[C@H](CCCN)NC(=O)[C@H](C(C)C)NC(=O)[C@H](Cc2ccc(-c3ccccc3)cc2)NC(=O)[C@H](C(C)C)NC(=O)[C@H](Cc2c[nH]c3ccccc23)NC(=O)[C@H](CC(=O)O)NC(=O)[C@H](Cc2ccc(OCC(=O)O)cc2)NC(=O)[C@H](CN)NC(=O)CSC[C@@H](C(=O)NCCOCCOCC(=O)N[C@H](CCC(=O)O)C(=O)NCCCCCCCCCCC(=O)O)NC(=O)[C@H]([C@@H](C)O)NC(=O)[C@H](C(C)C)NC(=O)[C@H](CC2CCCCC2)NC(=O)[C@H](Cc2cnc[nH]2)NC1=O [Compound 1133] ({CH2CO}-[Dap]Y(Carboxymethyl)DWV[Bip]V[Orn][dL]H[Cha]VTC[AEEA][dE][Aun]-OH; thioether N-14)	30.2
CC(C)C[C@H]1NC(=O)[C@H](CCCN)NC(=O)[C@H](C(C)C)NC(=O)[C@H](Cc2ccc(-c3ccccc3)cc2)NC(=O)[C@H](C(C)C)NC(=O)[C@H](Cc2c[nH]c3ccccc23)NC(=O)[C@H](CC(=O)O)NC(=O)[C@H](Cc2ccc(OCC(=O)O)cc2)NC(=O)[C@H](CN)NC(=O)CSC[C@@H](C(=O)NCCOCCOCC(=O)N[C@H](CO)C(=O)NCCCCCCCCCCC(=O)O)NC(=O)[C@H]([C@@H](C)O)NC(=O)[C@H](C(C)C)NC(=O)[C@H](CC2CCCCC2)NC(=O)[C@H](Cc2cnc[nH]2)NC1=O [Compound 1134] ({CH2CO}-[Dap]Y(Carboxymethyl)DWV[Bip]V[Orn][dL]H[Cha]VTC[AEEA][dS][Aun]-OH; thioether N-14)	28.9
CC(C)C[C@H]1NC(=O)[C@H](CCCN)NC(=O)[C@H](C(C)C)NC(=O)[C@H](Cc2ccc(-c3ccccc3)cc2)NC(=O)[C@H](C(C)C)NC(=O)[C@H](Cc2c[nH]c3ccccc23)NC(=O)[C@H](CC(=O)O)NC(=O)[C@H](Cc2ccc(OCC(=O)O)cc2)NC(=O)[C@H](CN)NC(=O)CSC[C@@H](C(=O)NCCOCCOCC(=O)N[C@H](Cc2cnc[nH]2)C(=O)NCCCCCCCCCCC(=O)O)NC(=O)[C@H]([C@@H](C)O)NC(=O)[C@H](C(C)C)NC(=O)[C@H](CC2CCCCC2)NC(=O)[C@H](Cc2cnc[nH]2)NC1=O [Compound 1135] ({CH2CO}-[Dap]Y(Carboxymethyl)DWV[Bip]V[Orn][dL]H[Cha]VTC[AEEA][dH][Aun]-OH; thioether N-14)	81.1
CC(C)C[C@H]1NC(=O)[C@H](CCCN)NC(=O)[C@H](C(C)C)NC(=O)[C@H](Cc2ccc(-c3ccccc3)cc2)NC(=O)[C@H](C(C)C)NC(=O)[C@H](Cc2c[nH]c3ccccc23)NC(=O)[C@H](CC(=O)O)NC(=O)[C@H](Cc2ccc(OCC(=O)O)cc2)NC(=O)[C@H](CN)NC(=O)CSC[C@@H](C(=O)NCCOCCOCC(=O)N[C@H](CC(N)=O)C(=O)NCCCCCCCCCCC(=O)O)NC(=O)[C@H]([C@@H](C)O)NC(=O)[C@H](C(C)C)NC(=O)[C@H](CC2CCCCC2)NC(=O)[C@H](Cc2cnc[nH]2)NC1=O [Compound 1136] ({CH2CO}-[Dap]Y(Carboxymethyl)DWV[Bip]V[Orn][dL]H[Cha]VTC[AEEA][dN][Aun]-OH; thioether N-14)	33.7
CC(C)C[C@H]1NC(=O)[C@H](CCCN)NC(=O)[C@H](C(C)C)NC(=O)[C@H](Cc2ccc(-c3ccccc3)cc2)NC(=O)[C@H](C(C)C)NC(=O)[C@H](Cc2c[nH]c3ccccc23)NC(=O)[C@H](CC(=O)O)NC(=O)[C@H](Cc2ccc(OCC(=O)O)cc2)NC(=O)[C@H](CN)NC(=O)CSC[C@@H](C(=O)NCCOCCOCC(=O)NC(Cc2cnc[nH]2)C(=O)NCCCCCCCCCCC(=O)O)NC(=O)[C@H]([C@@H](C)O)NC(=O)[C@H](C(C)C)NC(=O)[C@H](CC2CCCCC2)NC(=O)[C@H](Cc2cnc[nH]2)NC1=O (stereo partly drawn) [Compound 1137] ({CH2CO}-[Dap]Y(Carboxymethyl)DWV[Bip]V[Orn][dL]H[Cha]VTC[AEEA][ξH][Aun]-OH; thioether N-14)	18.6
